Here are results for 23 compounds from the NIST ThermoML archive (doi:10.1016/j.fluid.2012.05.006).

The data set in a line: activity coefficient (dimensionless); of the first substance listed, at infinite dilution; xn = mol fraction of the nth substance listed. The settings on record: Liquid, Chromatography, x1 = 0.

± gives the expanded uncertainty stated by the source.

For the compound `C1CCCCC1` [cyclohexane] + CCCCCCCCn1cc[n+](C)c1.O=[N+]([O-])[O-], the activity coefficient is, setting by setting: (303.15 K) 6.52 ± 0.23; (313.15 K) 6.27 ± 0.22; (323.15 K) 5.89 ± 0.21; (333.15 K) 5.58 ± 0.2; (343.15 K) 5.27 ± 0.19; (353.15 K) 5.09 ± 0.19. Besides, the activity coefficient (363.15 K) is 4.93 ± 0.18.

Regarding `ClC(Cl)Cl` [trichloromethane] + CCCCCCCCn1cc[n+](C)c1.O=[N+]([O-])[O-], the activity coefficient (303.15 K) is 0.17; the activity coefficient (313.15 K) was 0.18; the activity coefficient (323.15 K) turned out to be 0.19 ± 0.09; the activity coefficient (333.15 K) was found to be 0.2 ± 0.09; the activity coefficient (343.15 K) turned out to be 0.21 ± 0.09; the activity coefficient (353.15 K) is 0.22 ± 0.09. For the same compound, the activity coefficient (363.15 K) was found to be 0.23 ± 0.09.

In the case of `CCc1ccccc1` [ethylbenzene] + CCCCCCCCn1cc[n+](C)c1.O=[N+]([O-])[O-], the activity coefficient was 2.05 ± 0.11 (303.15 K, 101 kPa); 2.06 ± 0.11 (313.15 K, 101 kPa); 2.06 ± 0.11 (323.15 K, 101 kPa); 2.07 ± 0.11 (333.15 K, 101 kPa); 2.07 ± 0.11 (343.15 K, 101 kPa); 2.08 ± 0.11 (353.15 K, 101 kPa). Further, the activity coefficient (363.15 K, 101 kPa) is 2.09 ± 0.11.

Regarding `Cc1ccccc1C` [1,2-dimethylbenzene] + CCCCCCCCn1cc[n+](C)c1.O=[N+]([O-])[O-], the activity coefficient by setting is: (303.15 K) 1.75 ± 0.1; (313.15 K) 1.77 ± 0.1; (323.15 K) 1.79 ± 0.11; (333.15 K) 1.8 ± 0.11; (343.15 K) 1.82 ± 0.11; (353.15 K) 1.84 ± 0.11. The activity coefficient (363.15 K) was found to be 1.85 ± 0.11.

Regarding `Cc1ccc(C)cc1` [1,4-dimethylbenzene] + CCCCCCCCn1cc[n+](C)c1.O=[N+]([O-])[O-], the activity coefficient runs as follows: (303.15 K) 1.98 ± 0.11; (313.15 K) 1.99 ± 0.11; (323.15 K) 2 ± 0.11; (333.15 K) 2.01 ± 0.11; (343.15 K) 2.01 ± 0.11; (353.15 K) 2.02 ± 0.11. Moreover, the activity coefficient (363.15 K) was 2.03 ± 0.11.

On to `C1CCOC1` [tetrahydrofuran] + CCCCCCCCn1cc[n+](C)c1.O=[N+]([O-])[O-], for which the activity coefficient amounted to 1.03 ± 0.09 (303.15 K); 1.02 ± 0.09 (313.15 K); 1.01 ± 0.09 (323.15 K); 1 ± 0.09 (333.15 K); 0.99 ± 0.09 (343.15 K); 0.98 ± 0.09 (353.15 K). Moreover, under “363.15 K”, the activity coefficient was 0.97 ± 0.09.

For the compound `CC(C)=O` [acetone] + CCCCCCCCn1cc[n+](C)c1.O=[N+]([O-])[O-], the activity coefficient was found to be 0.84 ± 0.09 (303.15 K); 0.83 ± 0.09 (313.15 K); 0.81 ± 0.09 (323.15 K); 0.79 ± 0.09 (333.15 K); 0.77 ± 0.09 (343.15 K); 0.76 ± 0.09 (353.15 K). The activity coefficient (363.15 K) stood at 0.74 ± 0.09.

As for `CCCCCCCC` [octane] + CCCCCCCCn1cc[n+](C)c1.O=[N+]([O-])[O-], the activity coefficient by setting is: (303.15 K) 17.9 ± 0.64; (313.15 K) 17 ± 0.61; (323.15 K) 16.2 ± 0.58; (333.15 K) 15.7 ± 0.56; (343.15 K) 15.2 ± 0.54; (353.15 K) 14.8 ± 0.53. In addition, the activity coefficient (363.15 K) was 14.1 ± 0.5.

Regarding `c1ccccc1` [benzene] + CCCCCCCCn1cc[n+](C)c1.O=[N+]([O-])[O-], the activity coefficient is, setting by setting: (303.15 K) 0.94 ± 0.09; (313.15 K) 0.96 ± 0.09; (323.15 K) 0.97 ± 0.09; (333.15 K) 0.98 ± 0.09; (343.15 K) 0.99 ± 0.09; (353.15 K) 1 ± 0.09. The activity coefficient (363.15 K) is 1.01 ± 0.09.

Regarding `CC(C)O` [propan-2-ol] + CCCCCCCCn1cc[n+](C)c1.O=[N+]([O-])[O-], the activity coefficient by setting is: (303.15 K) 0.44 ± 0.09; (313.15 K) 0.43 ± 0.09; (323.15 K) 0.43 ± 0.09; (333.15 K) 0.42 ± 0.09; (343.15 K) 0.41 ± 0.09; (353.15 K) 0.41 ± 0.09. The activity coefficient (363.15 K) turned out to be 0.4 ± 0.09.

For the compound `CCCCCC` [hexane] + CCCCCCCCn1cc[n+](C)c1.O=[N+]([O-])[O-], the activity coefficient reads like this: (303.15 K) 12.1 ± 0.43; (313.15 K) 11.2 ± 0.4; (323.15 K) 10.5 ± 0.37; (333.15 K) 9.74 ± 0.35; (343.15 K) 9.05 ± 0.32; (353.15 K) 8.5 ± 0.3. Besides, the activity coefficient (363.15 K) came out at 8.16 ± 0.29.

For the compound `CO` [methanol] + CCCCCCCCn1cc[n+](C)c1.O=[N+]([O-])[O-], the activity coefficient by setting is: (303.15 K) 0.26 ± 0.09; (313.15 K) 0.26 ± 0.09; (323.15 K) 0.25 ± 0.09; (333.15 K) 0.24 ± 0.09; (343.15 K) 0.23 ± 0.09; (353.15 K) 0.23 ± 0.09. The activity coefficient (363.15 K) is 0.22 ± 0.09.

In the case of `CCCO` [propan-1-ol] + CCCCCCCCn1cc[n+](C)c1.O=[N+]([O-])[O-], the activity coefficient (313.15 K) was 0.41 ± 0.09; the activity coefficient (323.15 K) stood at 0.4 ± 0.09; the activity coefficient (333.15 K) came out at 0.38 ± 0.09; the activity coefficient (343.15 K) was 0.37 ± 0.09; the activity coefficient (353.15 K) stood at 0.36 ± 0.09; the activity coefficient (363.15 K) came out at 0.35 ± 0.09.

For the compound `Cc1ccccc1` [toluene] + CCCCCCCCn1cc[n+](C)c1.O=[N+]([O-])[O-], the activity coefficient reads like this: (303.15 K) 1.41 ± 0.1; (313.15 K) 1.41 ± 0.1; (323.15 K) 1.42 ± 0.1; (333.15 K) 1.43 ± 0.1; (343.15 K) 1.44 ± 0.1; (353.15 K) 1.45 ± 0.1. Moreover, the activity coefficient (363.15 K) amounted to 1.46 ± 0.1.

Take `CC#N` [acetonitrile] + CCCCCCCCn1cc[n+](C)c1.O=[N+]([O-])[O-]: the activity coefficient stood at 0.6 ± 0.09 (303.15 K); 0.59 ± 0.09 (313.15 K); 0.58 ± 0.09 (323.15 K); 0.57 ± 0.09 (333.15 K); 0.56 ± 0.09 (343.15 K); 0.55 ± 0.09 (353.15 K). Moreover, where the note is “363.15 K”, the activity coefficient came out at 0.54 ± 0.09.

Regarding `CC(C)CC(C)(C)C` [2,2,4-trimethylpentane] + CCCCCCCCn1cc[n+](C)c1.O=[N+]([O-])[O-], the activity coefficient worked out at 18.5 ± 0.66 (303.15 K); 16.8 ± 0.6 (313.15 K); 15.4 ± 0.55 (323.15 K); 14.1 ± 0.51 (333.15 K); 13.3 ± 0.48 (343.15 K); 12.3 ± 0.44 (353.15 K). Moreover, the activity coefficient (363.15 K) is 11.4 ± 0.41.

In the case of `CC1CCCCC1` [methylcyclohexane] + CCCCCCCCn1cc[n+](C)c1.O=[N+]([O-])[O-], the activity coefficient worked out at 7.91 ± 0.28 (303.15 K); 7.7 ± 0.27 (313.15 K); 7.37 ± 0.26 (323.15 K); 7.11 ± 0.25 (333.15 K); 6.81 ± 0.24 (343.15 K); 6.62 ± 0.23 (353.15 K). For the same compound, the activity coefficient (363.15 K) is 6.41 ± 0.23.

Turning to `CCO` [ethanol] + CCCCCCCCn1cc[n+](C)c1.O=[N+]([O-])[O-], the activity coefficient worked out at 0.38 ± 0.09 (303.15 K); 0.37 ± 0.09 (313.15 K); 0.35 ± 0.09 (323.15 K); 0.34 ± 0.09 (333.15 K); 0.33 ± 0.09 (343.15 K); 0.31 ± 0.09 (353.15 K). For the same compound, the activity coefficient (363.15 K) came out at 0.3 ± 0.09.

For the compound `ClC(Cl)(Cl)Cl` [tetrachloromethane] + CCCCCCCCn1cc[n+](C)c1.O=[N+]([O-])[O-], the activity coefficient runs as follows: (303.15 K) 1.16 ± 0.09; (313.15 K) 1.2 ± 0.09; (323.15 K) 1.24 ± 0.09; (333.15 K) 1.27 ± 0.1; (343.15 K) 1.3 ± 0.1; (353.15 K) 1.35 ± 0.1. Under “363.15 K”, the activity coefficient turned out to be 1.39 ± 0.1.

For `CCCCCCC` [heptane] + CCCCCCCCn1cc[n+](C)c1.O=[N+]([O-])[O-], the activity coefficient is 15.4 ± 0.55 (303.15 K); 14.3 ± 0.51 (313.15 K); 13.3 ± 0.48 (323.15 K); 12.3 ± 0.44 (333.15 K); 11.8 ± 0.42 (343.15 K); 11.2 ± 0.4 (353.15 K). For the same compound, under “363.15 K”, the activity coefficient came to 10.4 ± 0.37.

Take `ClCCl` [dichloromethane] + CCCCCCCCn1cc[n+](C)c1.O=[N+]([O-])[O-]: the activity coefficient reads like this: (303.15 K) 0.32 ± 0.09; (313.15 K) 0.33 ± 0.09; (323.15 K) 0.34 ± 0.09; (333.15 K) 0.36 ± 0.09; (343.15 K) 0.37 ± 0.09; (353.15 K) 0.38 ± 0.09. For the same compound, the activity coefficient (363.15 K) was determined as 0.39 ± 0.09.

For `CCCCCCCCC` [nonane] + CCCCCCCCn1cc[n+](C)c1.O=[N+]([O-])[O-], the activity coefficient amounted to 23.1 ± 0.83 (303.15 K); 21.8 ± 0.78 (313.15 K); 20.9 ± 0.75 (323.15 K); 20.1 ± 0.72 (333.15 K); 19.6 ± 0.7 (343.15 K); 18.6 ± 0.67 (353.15 K). The activity coefficient (363.15 K) amounted to 18.2 ± 0.65.

As for `Cc1cccc(C)c1` [1,3-dimethylbenzene] + CCCCCCCCn1cc[n+](C)c1.O=[N+]([O-])[O-], the activity coefficient was determined as 2.02 ± 0.11 (303.15 K); 2.03 ± 0.11 (313.15 K); 2.05 ± 0.11 (323.15 K); 2.06 ± 0.11 (333.15 K); 2.07 ± 0.11 (343.15 K); 2.08 ± 0.11 (353.15 K). In addition, the activity coefficient (363.15 K) was 2.09 ± 0.11.
